Earlier results as cited in patent publication US20100196504A1, “SYNERGISTIC ACTIVE PREPARATIONS COMPRISING 1,2-DECANEDIOL AND FURTHER ANTIMICROBIAL ACTIVE COMPOUNDS” (SYMRISE GmbH & Co. KG, priority 2007, published 2010).

Legend:
Propionibacterium acnes = conditions: microorganism causing acne
Corynebacterium acnes = conditions: microorganism causing body odour
[1] = system: Staphylococcus epidermidis; conditions: microorganism causing body odour

Measured: antimicrobial activity

CCCCCCCCC(O)CO (stereo not drawn) [1,2-decanediol]
antimicrobial activity: all assays above
